Reference: patent publication US9532990B2 (Zhejiang DTRM Biopharma Co. Ltd., priority 2014, dated 2017)
Where two headings read alike, the source gives them in different places.

Test: Toxicokinetic (TK) study in rats, 28-day
Type: in vivo, rat
Conditions: for Cmax / Tmax / AUC(0-t): rat, in vivo; for AUC(0-t): read-out: AUC0-24 h
[1] = female, 40 mg/kg, Study Day 1, Female
[2] = female, 40 mg/kg, Study Day 28, Female
[3] = female, 100 mg/kg, Study Day 1, Female
[4] = female, 100 mg/kg, Study Day 28, Female
[5] = female, 200 mg/kg, Study Day 1, Female
[6] = female, 200 mg/kg, Study Day 28, Female
[7] = male, 40 mg/kg, Study Day 1, Male
[8] = male, 40 mg/kg, Study Day 28, Male
[9] = male, 100 mg/kg, Study Day 1, Male
[10] = male, 100 mg/kg, Study Day 28, Male
[11] = male, 200 mg/kg, Study Day 1, Male
[12] = male, 200 mg/kg, Study Day 28, Male

C=CC(=O)N1CC[C@@H](n2nc(-c3ccc(Oc4c(F)c(F)cc(F)c4F)cc3F)c3c(N)ncnc32)C1 [Compound 45, 1-((R)-3-(4-amino-3-(2-fluoro-4-(2,3,5,6-tetrafluorophenoxy)phenyl)-1H-pyrazolo[3,4-d]pyrimidin-1-yl)pyrrolidin-1-yl)prop-2-en-1-one]
AUC compared with ibrutinib (TK data): significantly higher than that of ibrutinib
Cmax [1]: 2660 ng/mL
Tmax [1]: 1 h
AUC(0-t) [1]: 17300 ng·h/mL
Cmax [2]: 2970 ng/mL
Tmax [2]: 1 h
AUC(0-t) [2]: 17300 ng·h/mL
Cmax [3]: 3700 ng/mL
Tmax [3]: 4 h
AUC(0-t) [3]: 28900 ng·h/mL
Cmax [4]: 3830 ng/mL
Tmax [4]: 1 h
AUC(0-t) [4]: 29600 ng·h/mL
Cmax [5]: 4680 ng/mL
Tmax [5]: 4 h
AUC(0-t) [5]: 65200 ng·h/mL
Cmax [6]: 5490 ng/mL
Tmax [6]: 8 h
AUC(0-t) [6]: 60200 ng·h/mL
Cmax [7]: 2160 ng/mL
Tmax [7]: 2 h
AUC(0-t) [7]: 13700 ng·h/mL
Cmax [8]: 2090 ng/mL
Tmax [8]: 2 h
AUC(0-t) [8]: 15400 ng·h/mL
Cmax [9]: 2740 ng/mL
Tmax [9]: 2 h
AUC(0-t) [9]: 21700 ng·h/mL
Cmax [10]: 3990 ng/mL
Tmax [10]: 2 h
AUC(0-t) [10]: 30300 ng·h/mL
Cmax [11]: 4220 ng/mL
Tmax [11]: 2 h
AUC(0-t) [11]: 37600 ng·h/mL
Cmax [12]: 4540 ng/mL
Tmax [12]: 2 h
AUC(0-t) [12]: 45100 ng·h/mL
